Measurements published in patent US10588317B2, “Isoxazoline-substituted benzamides and analogues as insecticides” (priority 2015, dated 2020).

Tests used:
Format in all cases: in vivo
[1] = tested on: Plutella xylostella; assay: Plutella xylostella (diamond back moth), artificial diet; settings: 120 h, application rate 200 ppm, L2 larvae, 5 days after infestation, read-out: effect in at least one of the two categories (mortality or growth inhibition)
In short: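 L2 larvae (10-15 per well) fed on compound-treated, dried artificial diet; test solutions diluted in water from 10'000 ppm DMSO stocks. Readout 5 days post-infestation as mortality or growth inhibition versus untreated diet, with at least 80% effect at 200 ppm as threshold.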

[2] = tested on: Thrips tabaci; assay: Thrips tabaci (onion thrips): feeding/contact activity; settings: 144 h, application rate 200 ppm, Thrips population of mixed ages, 6 days after infestation, read-out: mortality
Description: Sunflower leaf discs were placed on agar in 24-well microtiter plates and sprayed with aqueous test solutions prepared from 10'000 ppm DMSO stock solutions. After drying the leaf discs were infested with a Thrips population of mixed ages. The samples were assessed for mortality 6 days after infestation.

[3] = tested on: Spodoptera littoralis; assay: Spodoptera littoralis (Egyptian cotton leaf worm), sprayed cotton leaf discs; settings: foliar, 72 h, application rate 200 ppm, L1 larvae, 3 days after infestation, read-out: control (mortality, anti-feeding effect, growth inhibition)
In short: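 Five first-instar larvae placed on dried cotton leaf discs (on agar) previously sprayed with aqueous dilutions of 10'000 ppm DMSO stocks. Scored at 3 days against untreated discs for mortality, feeding inhibition and growth inhibition; any category above untreated counts as control.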

[4] = tested on: Euschistus heros; assay: Euschistus heros (neotropical brown stink bug), sprayed soybean leaves; settings: 120 h, application rate 200 ppm, N2 nymphs, 5 days after infestation, read-out: effect in at least one of the two categories (mortality or growth inhibition)
In short: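 Scored 5 days post-infestation versus untreated controls, for both mortality and growth inhibition: N2 nymphs placed on agar-mounted soybean leaves previously sprayed at 200 ppm with aqueous test solutions from DMSO stocks and left to dry.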

[5] = tested on: Diabrotica balteata; assay: Diabrotica balteata (corn root worm), sprayed maize sprouts; settings: 96 h, application rate 200 ppm, L2 larvae, 4 days after infestation, read-out: effect in at least one of the two categories (mortality or growth inhibition)
In short: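 Read-out at 4 days post-infestation: mortality and growth inhibition relative to untreated samples. Test solutions (200 ppm, from DMSO stocks) were sprayed onto agar-held maize sprouts, which after drying received 6–10 L2 larvae per well.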

[6] = tested on: Myzus persicae; assay: Myzus persicae (green peach aphid): feeding/contact activity; settings: 144 h, application rate 200 ppm, aphid population of mixed ages, 6 days after infestation, read-out: mortality
Description: Sunflower leaf discs were placed onto agar in a 24-well microtiter plate and sprayed with aqueous test solutions prepared from 10'000 ppm DMSO stock solutions. After drying, the leaf discs were infested with an aphid population of mixed ages. The samples were assessed for mortality 6 days after infestation.

[7] = tested on: Tetranychus urticae; assay: Tetranychus urticae (two-spotted spider mite): feeding/contact activity; settings: 192 h, application rate 200 ppm, mixed population (mobile stages), 8 days after infestation, read-out: mortality
Description: Bean leaf discs on agar in 24-well microtiter plates were sprayed with aqueous test solutions prepared from 10'000 ppm DMSO stock solutions. After drying the leaf discs were infested with a mite population of mixed ages. The samples were assessed for mortality on mixed population (mobile stages) 8 days after infestation.

Cc1cc(C2=NO[C@@](c3cc(Cl)c(Cl)c(Cl)c3)(C(F)(F)F)C2)ccc1C(=O)N[C@@H]1CON(S(=O)(=O)C2CC2)C1 [Compound A229, N-[(4S)-2-cyclopropylsulfonyl-1,2-oxazolidin-4-yl]-2-methyl-4-[(5S)-5-(3,4,5-trichlorophenyl)-5-(trifluoromethyl)-4H-1,2-oxazol-3-yl]benzamide]
≥ 80%: percent effect (mortality or growth inhibition) at 200 ppm [1] | mortality at 200 ppm [2] | mortality at 200 ppm [3] | percent effect (mortality or growth inhibition) at 200 ppm [4] | percent effect (mortality or growth inhibition) at 200 ppm [5] | mortality at 200 ppm [6] | mortality at 200 ppm [7]

Cc1cc(C2=NO[C@](c3cc(Cl)cc(C(F)(F)F)c3)(C(F)(F)F)C2)ccc1C(=O)N[C@H]1CON(S(=O)(=O)CF)C1 [Compound A218]
≥ 80%: percent effect (mortality or growth inhibition) at 200 ppm [1] | mortality at 200 ppm [2] | mortality at 200 ppm [3] | percent effect (mortality or growth inhibition) at 200 ppm [4] | percent effect (mortality or growth inhibition) at 200 ppm [5] | mortality at 200 ppm [6] | mortality at 200 ppm [7]

Cc1cc(C2=NO[C@@](c3cc(Cl)c(Cl)c(Cl)c3)(C(F)(F)F)C2)ccc1C(=O)NC1CON(S(=O)(=O)N(C)Cc2ccccc2)C1 (stereo partly drawn) [Compound A86, N-[2-[benzyl(methyl)sulfamoyl]isoxazolidin-4-yl]-2-methyl-4-[(5S)-5-(3,4,5-trichlorophenyl)-5-(trifluoromethyl)-4H-isoxazol-3-yl]benzamide]
≥ 80%: percent effect (mortality or growth inhibition) at 200 ppm [1] | mortality at 200 ppm [2] | mortality at 200 ppm [3] | percent effect (mortality or growth inhibition) at 200 ppm [4] | percent effect (mortality or growth inhibition) at 200 ppm [5] | mortality at 200 ppm [6] | mortality at 200 ppm [7]

Cc1cc(C2=NO[C@@](c3cc(Cl)c(Cl)c(Cl)c3)(C(F)(F)F)C2)ccc1C(=O)NC1CON(S(=O)(=O)N(C)C(C)C)C1 (stereo partly drawn) [Compound A103, N-[2-[isopropyl(methyl)sulfamoyl]isoxazolidin-4-yl]-2-methyl-4-[(5S)-5-(3,4,5-trichlorophenyl)-5-(trifluoromethyl)-4H-isoxazol-3-yl]benzamide]
≥ 80%: percent effect (mortality or growth inhibition) at 200 ppm [1] | mortality at 200 ppm [2] | mortality at 200 ppm [3] | percent effect (mortality or growth inhibition) at 200 ppm [4] | percent effect (mortality or growth inhibition) at 200 ppm [5] | mortality at 200 ppm [6] | mortality at 200 ppm [7]

Cc1cc(C2=NO[C@](c3cc(Cl)cc(Cl)c3)(C(F)(F)F)C2)ccc1C(=O)N[C@H]1CON(S(=O)(=O)CCl)C1 [Compound A166, N-[(4R)-2-(chloromethylsulfonyl)-1,2-oxazolidin-4-yl]-4-[(5R)-5-(3,5-dichlorophenyl)-5-(trifluoromethyl)-4H-1,2-oxazol-3-yl]-2-methylbenzamide]
≥ 80%: percent effect (mortality or growth inhibition) at 200 ppm [1] | mortality at 200 ppm [2] | mortality at 200 ppm [3] | percent effect (mortality or growth inhibition) at 200 ppm [4] | percent effect (mortality or growth inhibition) at 200 ppm [5] | mortality at 200 ppm [6] | mortality at 200 ppm [7]

Cc1cc(C2=NO[C@](c3cc(Cl)c(F)c(Cl)c3)(C(F)(F)F)C2)ccc1C(=O)N[C@H]1CON(S(=O)(=O)CF)C1 [Compound A211]
≥ 80%: percent effect (mortality or growth inhibition) at 200 ppm [1] | mortality at 200 ppm [2] | mortality at 200 ppm [3] | percent effect (mortality or growth inhibition) at 200 ppm [4] | percent effect (mortality or growth inhibition) at 200 ppm [5] | mortality at 200 ppm [6] | mortality at 200 ppm [7]

Cc1cc(C2=NO[C@@](c3cc(F)cc(C(F)(F)F)c3)(C(F)(F)F)C2)ccc1C(=O)N[C@@H]1CON(S(=O)(=O)N(C)C)C1 [Compound A169]
≥ 80%: percent effect (mortality or growth inhibition) at 200 ppm [1] | mortality at 200 ppm [2] | mortality at 200 ppm [3] | percent effect (mortality or growth inhibition) at 200 ppm [4] | percent effect (mortality or growth inhibition) at 200 ppm [5] | mortality at 200 ppm [6] | mortality at 200 ppm [7]

Cc1cc(C2=NO[C@@](c3cc(Cl)cc(Cl)c3)(C(F)(F)F)C2)ccc1C(=O)N[C@@H]1CON(S(N)(=O)=O)C1 [Compound A178, 4-[(5S)-5-(3,5-dichlorophenyl)-5-(trifluoromethyl)-4H-1,2-oxazol-3-yl]-2-methyl-N-[(4S)-2-sulfamoyl-1,2-oxazolidin-4-yl]benzamide]
≥ 80%: percent effect (mortality or growth inhibition) at 200 ppm [1] | mortality at 200 ppm [2] | mortality at 200 ppm [3] | percent effect (mortality or growth inhibition) at 200 ppm [4] | percent effect (mortality or growth inhibition) at 200 ppm [5] | mortality at 200 ppm [6] | mortality at 200 ppm [7]

Cc1cc(C2=NO[C@@](c3cc(Cl)c(F)c(Cl)c3)(C(F)(F)F)C2)ccc1C(=O)N[C@H]1CON(S(=O)(=O)CBr)C1 [Compound A189, N-[(4R)-2-(bromomethylsulfonyl)-1,2-oxazolidin-4-yl]-4-[(5S)-5-(3,5-dichloro-4-fluorophenyl)-5-(trifluoromethyl)-4H-1,2-oxazol-3-yl]-2-methylbenzamide]
≥ 80%: percent effect (mortality or growth inhibition) at 200 ppm [1] | mortality at 200 ppm [2] | mortality at 200 ppm [3] | percent effect (mortality or growth inhibition) at 200 ppm [4] | percent effect (mortality or growth inhibition) at 200 ppm [5] | mortality at 200 ppm [6] | mortality at 200 ppm [7]

Cc1cc(C2=NO[C@](c3cc(Cl)c(F)c(Cl)c3)(C(F)(F)F)C2)ccc1C(=O)N[C@H]1CON(S(=O)(=O)NC(=O)OC(C)(C)C)C1 [Compound A209, tert-butyl N-[[(4R)-4-[[4-[(5R)-5-(3,5-dichloro-4-fluorophenyl)-5-(trifluoromethyl)-4H-1,2-oxazol-3-yl]-2-methylbenzoyl]amino]-1,2-oxazolidin-2-yl]sulfonyl]carbamate]
≥ 80%: percent effect (mortality or growth inhibition) at 200 ppm [1] | mortality at 200 ppm [2] | mortality at 200 ppm [3] | percent effect (mortality or growth inhibition) at 200 ppm [4] | percent effect (mortality or growth inhibition) at 200 ppm [5] | mortality at 200 ppm [6] | mortality at 200 ppm [7]

Cc1cc(C2=NO[C@@](c3cccc(C(F)(F)F)n3)(C(F)(F)F)C2)ccc1C(=O)N[C@H]1CON(S(C)(=O)=O)C1 [Compound A215]
≥ 80%: percent effect (mortality or growth inhibition) at 200 ppm [1] | mortality at 200 ppm [2] | mortality at 200 ppm [3] | percent effect (mortality or growth inhibition) at 200 ppm [4] | percent effect (mortality or growth inhibition) at 200 ppm [5] | mortality at 200 ppm [6] | mortality at 200 ppm [7]

C#CCN(CC)S(=O)(=O)N1C[C@@H](NC(=O)c2ccc(C3=NO[C@@](c4cc(Cl)cc(Cl)c4)(C(F)(F)F)C3)cc2Cl)CO1 [Compound A161, 2-chloro-4-[(5S)-5-(3,5-dichlorophenyl)-5-(trifluoromethyl)-4H-isoxazol-3-yl]-N-[(4R)-2-[ethyl(prop-2-ynyl)sulfamoyl]isoxazolidin-4-yl]benzamide]
≥ 80%: percent effect (mortality or growth inhibition) at 200 ppm [1] | mortality at 200 ppm [2] | mortality at 200 ppm [3] | percent effect (mortality or growth inhibition) at 200 ppm [4] | percent effect (mortality or growth inhibition) at 200 ppm [5] | mortality at 200 ppm [6] | mortality at 200 ppm [7]
